These results are taken from patent US20250145594A1, “MODULATORS OF THE INTEGRATED STRESS PATHWAY” (Calico Life Sciences LLC, priority 2020, published 2025).

The experiment has as its system ATF4 luciferase reporter in HEK293T cells. In words: ATF4-Luc assay (in vitro model of VWMD). Conditions: Homo sapiens, HEK-293T, 7 h, HEK293T cells carrying the ATF4 luciferase reporter, 1 μg/mL tunicamycin, One Glo luminescence. The class given is cell-based, human. The method in brief:
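Stable HEK293T line expressing firefly luciferase behind the human ATF4 5′-UTR, treated with 1 μg/mL tunicamycin plus compound for 7 hours. Luminescence read with One Glo; EC50 determined.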
(In general: Reporter assays use an easily measured gene product as a stand-in for the process of interest.)

Consider `O=C(NC12CC(n3cc(-c4ccc(C(F)F)cn4)cn3)(C1)C2)[C@H]1C[C@@H](O)c2cc(Cl)c(F)cc2O1` [Compound 569, (2R,4R)-6-chloro-N-(3-{4-[5-(difluoromethyl)pyridin-2-yl]-1H-pyrazol-1-yl}bicyclo[1.1.1]pentan-1-yl)-7-fluoro-4-hydroxy-3,4-dihydro-2H-1-benzopyran-2-carboxamide], for which the EC50 (usually the concentration needed to bring the measured effect to its halfway point) was below 10 nM. Take `O=C(CO[C@H]1C[C@@H](OC(F)(F)F)C1)NC12CCC(NC(=O)[C@H]3C[C@@H](O)c4cc(C(F)(F)F)ccc4O3)(CC1)C[C@@H]2O` [Compound 460, (2R,4R)-4-hydroxy-N-[(3S)-3-hydroxy-4-(2-{[(1s,3R)-3-(trifluoromethoxy)cyclobutyl]oxy}acetamido)bicyclo[2.2.2]octan-1-yl]-6-(trifluoromethyl)-3,4-dihydro-2H-1-benzopyran-2-carboxamide]: the concentration giving a half-maximal response (EC50) is below 10 nM. With `O=C(NC12CC(n3cnc(C4CC(OC(F)(F)F)C4)c3)(C1)C2)[C@H]1C[C@@H](O)c2cc(C(F)(F)F)ccc2O1` (stereo partly drawn) [Compound 471, (2R,4R)-4-hydroxy-N-(3-{4-[(1s,3S)-3-(trifluoromethoxy)cyclobutyl]-1H-imidazol-1-yl}bicyclo[1.1.1]pentan-1-yl)-6-(trifluoromethyl)-3,4-dihydro-2H-1-benzopyran-2-carboxamide], the EC50 was below 10 nM. Next, `CCOc1ccc2nn(C34CC(NC(=O)COc5ccc(Cl)c(Cl)c5)(C3)C4)cc2c1` [Compound 623, 2-(3,4-dichlorophenoxy)-N-[3-(5-ethoxy-2H-indazol-2-yl)bicyclo[1.1.1]pentan-1-yl]acetamide]: below 10 nM. With `O=C(N[C@H]1CC[C@H](C(=O)N2CC(c3ccc(C(F)(F)F)cc3)C2)CC1)[C@H]1C[C@@H](O)c2cc(Cl)ccc2O1` [Compound 323, (2R,4R)-6-chloro-4-hydroxy-N-[trans-4-{3-[4-(trifluoromethyl)phenyl]azetidine-1-carbonyl}cyclohexyl]-3,4-dihydro-2H-1-benzopyran-2-carboxamide], the EC50 was below 10 nM. As for `O=C(NC12CC(n3cc(-c4ccc(OC(F)(F)F)cn4)cn3)(C1)C2)[C@H]1C[C@H](O)c2cc(Cl)c(F)cc2O1` [Compound 476, (2R,4S)-6-chloro-7-fluoro-4-hydroxy-N-(3-{4-[5-(trifluoromethoxy)pyridin-2-yl]-1H-pyrazol-1-yl}bicyclo[1.1.1]pentan-1-yl)-3,4-dihydro-2H-1-benzopyran-2-carboxamide], the EC50 is below 10 nM.

Consider `O=C(COc1ccc(Cl)c(F)c1)NC12CC(n3cc(C(=O)N4CC[C@H](OC(F)(F)F)C4)nn3)(C1)C2` [Compound 599, 2-(4-chloro-3-fluorophenoxy)-N-(3-{4-[(3S)-3-(trifluoromethoxy)pyrrolidine-1-carbonyl]-1H-1,2,3-triazol-1-yl}bicyclo[1.1.1]pentan-1-yl)acetamide], for which the EC50 is below 10 nM. Turning to `O=C(NC12CC(n3cc(OCCCOC(F)(F)F)cn3)(C1)C2)[C@H]1C[C@@H](O)c2cc(Cl)ccc2O1` [Compound 431, (2R,4R)-6-chloro-4-hydroxy-N-(3-{4-[3-(trifluoromethoxy)propoxy]-1H-pyrazol-1-yl)bicyclo[1.1.1]pentan-1-yl)-3,4-dihydro-2H-1-benzopyran-2-carboxamide], the concentration giving a half-maximal response (EC50) is below 10 nM. In the case of `CCOC(=O)OC[C@@H]1C[C@H]1c1cn(C23CC(NC(=O)[C@H]4C[C@@H](O)c5cc(Cl)ccc5O4)(C2)C3)nn1` (mixture of isomers) [Compound 543, ((1RS,2RS)-2-[1-(3-{[(2R,4R)-6-chloro-4-hydroxy-3,4-dihydro-2H-1-benzopyran-2-carbonyl]amino}bicyclo[1.1.1]pentan-1-yl)-1H-1,2,3-triazol-4-yl]cyclopropyl)methyl ethyl carbonate], the EC50 was below 10 nM. For the compound `O=C(CO[C@H]1C[C@@H](OC(F)(F)F)C1)N[C@@H]1C[C@@H]2C[C@H]1C[C@H]2NC(=O)[C@H]1C[C@@H](O)c2cc(C(F)(F)F)c(F)cc2O1` [Compound 645, (2R,4R)-7-fluoro-4-hydroxy-N-[(1S,2R,4S,5R)-5-(2-{[(1s,3S)-3-(trifluoromethoxy)cyclobutyl]oxy}acetamido)bicyclo[2.2.1]heptan-2-yl]-6-(trifluoromethyl)-3,4-dihydro-2H-1-benzopyran-2-carboxamide], the EC50 is below 10 nM. Consider `O=C(NC12CC(n3cc(OCCOC(F)(F)F)cn3)(C1)C2)[C@H]1CNc2cc(Cl)ccc2O1` [Compound 518, (2R)-6-chloro-N-(3-{4-[2-(trifluoromethoxy)ethoxy]-1H-pyrazol-1-yl}bicyclo[1.1.1]pentan-1-yl)-3,4-dihydro-2H-1,4-benzoxazine-2-carboxamide], for which the EC50 fell in the range of 10 to 50 nM.

On to `O=C(NC12CC(n3cc(OCCCC(F)(F)F)cn3)(C1)C2)[C@H]1C[C@H](O)c2cc(C(F)(F)F)c(F)cc2O1` [Compound 642, (2R,4S)-7-fluoro-4-hydroxy-N-{3-[4-(4,4,4-trifluorobutoxy)-1H-pyrazol-1-yl]bicyclo[1.1.1]pentan-1-yl}-6-(trifluoromethyl)-3,4-dihydro-2H-1-benzopyran-2-carboxamide], for which the EC50 is 10 to 50 nM. For the compound `O=C(NC12CC(n3cc([C@H]4[C@@H]5CN(CC(F)(F)F)C[C@@H]54)cn3)(C1)C2)[C@H]1C[C@@H](O)c2cc(Cl)ccc2O1` [Compound 583, (2R,4R)-6-chloro-4-hydroxy-N-(3-{4-[(1R,5S,6s)-3-(2,2,2-trifluoroethyl)-3-azabicyclo[3.1.0]hexan-6-yl]-1H-pyrazol-1-yl}bicyclo[1.1.1]pentan-1-yl)-3,4-dihydro-2H-1-benzopyran-2-carboxamide], the half-maximal effective concentration (EC50) was below 10 nM.

With `O=C(COc1ccc(Cl)c(F)c1)N[C@H]1CC[C@H](n2cc(OCCOC(F)(F)F)cn2)CC1` [Compound 457, 2-(4-chloro-3-fluorophenoxy)-N-[(1r,4r)-4-{4-[2-(trifluoromethoxy)ethoxy]-1H-pyrazol-1-yl}cyclohexyl]acetamide], the half-maximal effective concentration (EC50) was below 10 nM. `O=C(NC12CC(n3cc(C(=O)N4CC[C@H](COC(F)(F)F)C4)cn3)(C1)C2)[C@H]1C[C@@H](O)c2cc(Cl)ccc2O1` [Compound 400, (2R,4R)-6-chloro-4-hydroxy-N-[3-(4-{(3S)-3-[(trifluoromethoxy)methyl]pyrrolidine-1-carbonyl}-1H-pyrazol-1-yl)bicyclo[1.1.1]pentan-1-yl]-3,4-dihydro-2H-1-benzopyran-2-carboxamide]: the EC50 was 10 to 50 nM. In the case of `O=C(NC12CC(n3cc(OCCOC(F)(F)F)cn3)(C1)C2)C1CNc2cc(C(F)(F)F)c(F)cc2O1` (centres unmarked) [Compound 592, 7-fluoro-N-(3-{4-[2-(trifluoromethoxy)ethoxy]-1H-pyrazol-1-yl}bicyclo[1.1.1]pentan-1-yl)-6-(trifluoromethyl)-3,4-dihydro-2H-1,4-benzoxazine-2-carboxamide], the EC50 was 10 to 50 nM. Consider `O=C(COc1ccc(Cl)c(F)c1)NC12CCC(n3cc(C(=O)N4CC[C@H](OC(F)(F)F)C4)cn3)(CC1)CC2` [Compound 624, 2-(4-chloro-3-fluorophenoxy)-N-(4-{4-[(3S)-3-(trifluoromethoxy)pyrrolidine-1-carbonyl]-1H-pyrazol-1-yl}bicyclo[2.2.2]octan-1-yl)acetamide], for which the EC50 is below 10 nM.
